Laboratory results reported in ChEMBL document CHEMBL1155656, “Thirteen novel cycloartane-type triterpenes from Combretum quadrangulare” (2000).
≈ marks a conversion by molar mass, not a printed value.

Assay: Cytotoxicity against mouse 26-L5 cells
Format: functional
Settings: read-out: ED50 (the source's name)

SMILES | EC50 [µg/mL]
C=C(C)[C@H](O)CC[C@@H](C(=O)O)[C@H]1CC[C@@]2(C)[C@@H]3CC[C@H]4[C@](C)(C(=O)OC)[C@@H](O)C[C@H](O)[C@@]45C[C@@]35CC[C@]12C | > 100
C=C(CC[C@@H](C)[C@H]1CC[C@@]2(C)[C@@H]3[C@@H](O)C[C@H]4[C@](C)(C(=O)O)[C@@H](O)C[C@H](O)[C@@]45C[C@@]35CC[C@]12C)C(C)C | 37.3 (≈ 74.2 µM)
C[C@H](CC[C@H](O)C(C)(C)O)[C@H]1CC[C@@]2(C)[C@@H]3CC[C@H]4[C@](C)(C(=O)O)[C@@H](O)C[C@H](O)[C@@]45C[C@@]35CC[C@]12C | > 100
C=C(C)[C@@H](O)CC[C@@H](CO)[C@H]1CC[C@@]2(C)[C@@H]3CC[C@H]4[C@](C)(C(=O)OC)[C@@H](O)C[C@H](O)[C@@]45C[C@@]35CC[C@]12C [METHYL QUADRANGULARATE] | 29.4 (≈ 56.7 µM)
C[C@H](CCC(=O)O)[C@H]1CC[C@@]2(C)[C@@H]3CC[C@H]4[C@](C)(C(=O)O)[C@@H](O)C[C@H](O)[C@@]45C[C@@]35CC[C@]12C [NORQUADRANGULARIC ACID A] | > 100
COC(=O)[C@]1(C)[C@@H](O)C[C@H](O)[C@]23C[C@]24CC[C@]2(C)[C@@H]([C@@H](C/C=C/C(C)(C)OO)C(=O)O)CC[C@@]2(C)[C@@H]4CC[C@@H]13 [QUADRANGULARIC ACID F] | > 100
C=C(C)[C@@H](O)CC[C@@H](C(=O)O)[C@H]1CC[C@@]2(C)[C@@H]3CC[C@H]4[C@](C)(C(=O)OC)[C@@H](O)C[C@H](O)[C@@]45C[C@@]35CC[C@]12C [QUADRANGULARIC ACID G] | > 100
C=C(C)C(=O)CC[C@@H](C(=O)O)[C@H]1CC[C@@]2(C)[C@@H]3CC[C@H]4[C@](C)(C(=O)O)[C@@H](O)C[C@H](O)[C@@]45C[C@@]35CC[C@]12C [QUADRANGULARIC ACID H] | > 100
COC(C)(C)/C=C/C[C@@H](C)[C@H]1CC[C@@]2(C)[C@@H]3CC[C@H]4[C@](C)(C(=O)O)[C@@H](O)C[C@H](O)[C@@]45C[C@@]35CC[C@]12C [QUADRANGULARIC ACID J] | 86.1 (≈ 171 µM)
C[C@H](C/C=C\C(C)(C)O)[C@H]1CC[C@@]2(C)[C@@H]3CC[C@H]4[C@](C)(C(=O)O)[C@@H](O)C[C@H](O)[C@@]45C[C@@]35CC[C@]12C [QUADRANGULARIC ACID K] | 82.6 (≈ 169 µM)
C[C@H](CC[C@@H](O)C(C)(C)O)[C@H]1CC[C@@]2(C)[C@@H]3CC[C@H]4[C@](C)(C(=O)O)[C@@H](O)C[C@H](O)[C@@]45C[C@@]35CC[C@]12C [QUADRANGULARIC ACID L] | > 100
